From patent publication US11129801B2 (SigmaThera SAS, priority 2016, dated 2021)

B1: BDNF: Brain-derived neurotrophic factor, used as a reference compound (protein, UniProt P23560 19-247, looked up)
Neurotrophic factor BDNF …: APMKEANIRGQGGLAYPGVRTHGTLESVNGPKAGSRGLTSLADTFEHVIEELLDEDQKVRPNEENNKDADLYTSRVMLSSQVPLEPPLLFLLEEYKNYLDAANMSMRVRRHSDPARRGELSVCDSISEWVTAADKKTAVDMSGGTVTVLEKVPVSKGQLKQYFYETKCNPMGYTKEGCRGIDKRHWNSQCRTTQSYVRALTMDSKKRIGWRFIRIDTSCVCTLTIKRGR

Tests used:
[1] = system: rat motor neurons (Islet 1/2 positive neurons); test: Survival of primary motor neurons injured by glutamate; type: cell-based; settings: glutamate 40 μM, 20 min
Method: Rat motor neurons were cultured as described (Camu et al. (1994) Journal of the neurological sciences 124 Suppl: 73-74). Briefly, pregnant female rats of 14 days gestation were killed by cervical dislocation (Rats Wistar; Janvier Lab) and the foetuses were removed from the uterus. The spinal cord were removed and placed in ice-cold PBS. Tissue segments were spun down, incubated in 0.025% (w/v) of trypsin-EDTA (Panbiotech, Ref: P10-023100) for 10 min at 37° C. Fragments were transferred in 1 mL of complete Leibovitz medium containing BSA (0.4%, Dustcher, Ref: P06-1391100) and DNasel grade II (0.1 mg/ml, Panbiotech, ref: P60-37780100). Cells were then dissociated by several rounds of trituration, centrifuged for 5 min at 470 g on a 4% BSA cushion and re-suspended in 2 mL of supplemented L15 medium. Motor neurons were counted in a Neubauer cytometer using the trypan blue exclusion test. Cells were cultured at a density of 1.5×10^4 cells/well of a 96 wells plate on astrocyte monolayer in Neurobasal (Invitrogen, ref: 21103) containing 1% of B27 (Invitrogen, ref: 17504), 2 mM L-Glutamine (Panbiotech, ref: P04-80100), 1% of PS solution, […] 2-mercaptoethanol (Invitrogen, ref: 31350-010), 2% Horse serum (Invitrogen, Ref: 16050-122), 1 ng/ml of Brain-derived neurotrophic factor (BDNF, PanBiotech, Ref: CB-1115002) and 1 ng/ml of Glial derived neurotrophic factor (GDNF, Dustcher, Ref: CB-1116001) at 37° C. in a humidified air (95%)/CO2 (5%) atmosphere.
Briefly, after 10 days of culture, medium was removed and 100 μL of fresh medium (supplemented Neurobasal without neurotrophic factor) without or with test compound was added 1 h before glutamate intoxication. Then, Glutamate at 40 μM in absence or presence of test compound will be added in the culture medium and incubated 20 min. The cells were rinsed with incubation solution (3 wash-outs) and let in the neurobasal medium containing compounds or control medium for 24 h.
[…]_Control medium stimulated with vehicle medium […]
The data were expressed as mean±s.e.m (of 6 data per condition, 1 culture). […]

caspase 12 = test: ELISA of cortical caspase 12, Aβ25-35 mouse model; type: in vivo; settings: Experiment 2, post-treatment, 1 mg/kg
Method: (§1) In Experiment 2, twelve mice per experimental group were administered Sc.Aβ or Aβ25-35-amyloid peptide on day 0 by i.c.v. injection. […] Animals were tested at day 7 and later.
(§2) For each of Experiments 1-4, on day 7, all animals were tested for the spontaneous alternation performance in the Y-maze test, an index of spatial working memory. On day 8 and 9, the contextual long-term memory of the animals was assessed using the step-through type passive avoidance procedure. On day 9, immediately after the retention session, animals were sacrificed by decapitation and the hippocampus and cortex dissected out. Lipid peroxidation was analyzed in the hippocampus, whereas neuroinflammation, apoptosis, amyloid burden and hyperphosphorylation of tau protein were analyzed in cortex.
(§3) Enzyme-linked immunosorbant assay (ELISA) assays: Contents in GFAP, Caspase 12, Amyloid-beta 1-40, Amyloid-beta 1-42, Total Tau, and pTau on Ser199 were analyzed by using commercial ELISA assay kit. • GFAP: Supplier: USCNK #Ref: SEA068Mu • Total Tau: Supplier: Novex #Ref: KMB7011 • pTau (S199): Supplier: Novex #Ref: KMB7041 • Amyloid beta 1-40: Supplier: Novex #Ref: KMB3481 • Amyloid beta 1-42: Supplier: Novex #Ref: KMB3441 • Caspase-12: Supplier: LSBio #Ref: LS-F11023 • BAX: Supplier: Euromedex#Ref: SEB343Mu • BCL2: Supplier: Euromedex #Ref: SEA778Mu […]

Aβ1-42 = test: ELISA of cortical Aβ1-42, Aβ25-35 mouse model; type: in vivo; settings: Experiment 2, post-treatment
Method: as §1, §2, §3

| Molecule | protective effect on motor neuron survival ([1]; 0.1 μM, 0.3 μM, 1 μM, 3 μM and 10 μM) | Islet 1/2 positive neurons ([1]; 10 μM) | cortical caspase 12 elevation (caspase 12) | cortical Aβ1-42 elevation (Aβ1-42) | Islet 1/2 positive neurons ([1]; 50 ng/mL) |
| --- | --- | --- | --- | --- | --- |
| CCC(C/C=C/c1ccccc1)(c1ccccc1)N(C)CC1CC1 (single isomer, unassigned; (+)) [igmesine, (+)-(E)-N-(cyclopropylmethyl)-N-methyl-3,6-diphenylhex-5-en-3-amine] | significant protective effect | 126 % of the control | fully normalized | fully normalized | – |
| B1 | – | – | – | – | 96.43 % of the control |
